System: 935938-334-R-J1-PDC complex spheroid viability
Assay: Anticancer human tumor 935938-334-R-J1-PDC patient-derived small intestine adenocarcinoma cell line growth inhibition [POLQ]
Conditions: for IC50: curve of first compound; for viability, T/C: stronger effect = lower value
Procedure, shortened: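 Growth inhibition in 3D: complex spheroids (tumor PDC, HUVEC, MSC) treated with POLQ inhibitor combinations; where Cmax unknown, highest tested concentration 10 microM, except SN-38 at 1 microM.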

[1] = second compound 0.0316 µM, first compound 0.0316 µM
[2] = second compound 0.0316 µM, first compound 0.1 µM
[3] = second compound 0.0316 µM, first compound 0.316 µM
[4] = second compound 0.0316 µM, first compound 1 µM
[5] = second compound 0.0316 µM, first compound 3.16 µM
[6] = second compound 0.0316 µM, first compound 10 µM
[7] = second compound 0.1 µM, first compound 0.0316 µM
[8] = second compound 0.1 µM, first compound 0.1 µM
[9] = second compound 0.1 µM, first compound 0.316 µM
[10] = second compound 0.1 µM, first compound 1 µM
[11] = second compound 0.1 µM, first compound 3.16 µM
[12] = second compound 0.1 µM, first compound 10 µM
[13] = second compound 0.316 µM, first compound 0.0316 µM
[14] = second compound 0.316 µM, first compound 0.1 µM
[15] = second compound 0.316 µM, first compound 0.316 µM
[16] = second compound 0.316 µM, first compound 1 µM
[17] = second compound 0.316 µM, first compound 3.16 µM
[18] = second compound 0.316 µM, first compound 10 µM
[19] = second compound 1 µM, first compound 0.0316 µM
[20] = second compound 1 µM, first compound 0.1 µM
[21] = second compound 1 µM, first compound 0.316 µM
[22] = second compound 1 µM, first compound 1 µM
[23] = second compound 1 µM, first compound 3.16 µM
[24] = second compound 1 µM, first compound 10 µM
[25] = second compound 3.16 µM, first compound 0.0316 µM
[26] = second compound 3.16 µM, first compound 0.1 µM
[27] = second compound 3.16 µM, first compound 0.316 µM
[28] = second compound 3.16 µM, first compound 1 µM
[29] = second compound 3.16 µM, first compound 3.16 µM
[30] = second compound 3.16 µM, first compound 10 µM
[31] = second compound 10 µM, first compound 0.0316 µM
[32] = second compound 10 µM, first compound 0.1 µM
[33] = second compound 10 µM, first compound 0.316 µM
[34] = second compound 10 µM, first compound 1 µM
[35] = second compound 10 µM, first compound 3.16 µM
[36] = second compound 10 µM, first compound 10 µM
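Note: spheroids exposed to drugs for seven days before viability read.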
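Throughout, for viability, T/C: 100% = DMSO vehicle control wells.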

**Q.** How did the IC50 (second compound 0.0316 µM) turn out when `CC1COCCN1c1cc(C2(O)CC3CCC(C2)O3)c2cnn(-c3ccn[nH]3)c2n1` (stereo unspecified) + COC1C(OC(N)=O)C(O)C(Oc2ccc3c(O)c(NC(=O)c4ccc(O)c(CC=C(C)C)c4)c(=O)oc3c2C)OC1(C)C was run?
**A.** 0.244 µM

**Q.** And the IC50 (second compound 0.1 µM)?
**A.** 0.207 µM

**Q.** And the IC50 (second compound 0.316 µM)?
**A.** 0.168 µM

**Q.** And the IC50 (second compound 1 µM)?
**A.** 0.216 µM

**Q.** What about the IC50 (second compound 3.16 µM) of the same compound?
**A.** 0.177 µM

**Q.** What about the IC50 (second compound 10 µM) of the same compound?
**A.** 0.097 µM

**Q.** What about the viability, T/C [1] of the same compound?
**A.** 82.5%

**Q.** And the viability, T/C [2]?
**A.** 71.2%

**Q.** And the viability, T/C [3]?
**A.** 43.8%

**Q.** And the viability, T/C [4]?
**A.** 20.1%

**Q.** And the viability, T/C [5]?
**A.** 14.7%

**Q.** And the viability, T/C [6]?
**A.** 8.68%

**Q.** What about the viability, T/C [7] of the same compound?
**A.** 114%

**Q.** And the viability, T/C [8]?
**A.** 71.9%

**Q.** And the viability, T/C [9]?
**A.** 36.4%

**Q.** What about the viability, T/C [10] of the same compound?
**A.** 21.1%

**Q.** What about the viability, T/C [11] of the same compound?
**A.** 18.7%

**Q.** What about the viability, T/C [12] of the same compound?
**A.** 9.26%

**Q.** And the viability, T/C [13]?
**A.** 75.7%

**Q.** And the viability, T/C [14]?
**A.** 65.8%

**Q.** What about the viability, T/C [15] of the same compound?
**A.** 30.4%

**Q.** What about the viability, T/C [16] of the same compound?
**A.** 21.5%

**Q.** What about the viability, T/C [17] of the same compound?
**A.** 16.8%

**Q.** What about the viability, T/C [18] of the same compound?
**A.** 11.5%

**Q.** And the viability, T/C [19]?
**A.** 79.1%

**Q.** What about the viability, T/C [20] of the same compound?
**A.** 78.6%

**Q.** And the viability, T/C [21]?
**A.** 35.8%

**Q.** What about the viability, T/C [22] of the same compound?
**A.** 23.2%

**Q.** And the viability, T/C [23]?
**A.** 13.5%

**Q.** And the viability, T/C [24]?
**A.** 11.3%

**Q.** And the viability, T/C [25]?
**A.** 102%

**Q.** And the viability, T/C [26]?
**A.** 63.3%

**Q.** And the viability, T/C [27]?
**A.** 36.5%

**Q.** And the viability, T/C [28]?
**A.** 20.9%

**Q.** What about the viability, T/C [29] of the same compound?
**A.** 15.1%

**Q.** What about the viability, T/C [30] of the same compound?
**A.** 10.2%

**Q.** And the viability, T/C [31]?
**A.** 88.2%

**Q.** And the viability, T/C [32]?
**A.** 48.9%

**Q.** What about the viability, T/C [33] of the same compound?
**A.** 27.9%

**Q.** And the viability, T/C [34]?
**A.** 16.6%

**Q.** What about the viability, T/C [35] of the same compound?
**A.** 15.7%

**Q.** And the viability, T/C [36]?
**A.** 8.92%

**Q.** Which IC50 (second compound 0.0316 µM) does the source give for `C=CC(=O)N1CCN(c2nc(=O)n(-c3c(C)ccnc3C(C)C)c3nc(-c4c(O)cccc4F)c(F)cc23)C(C)C1` (stereo unspecified) + Nc1ccc(C#CCN(C(=O)Cc2ncc(C(F)(F)F)cc2C(F)(F)F)c2ccc(F)cc2)nn1 here?
**A.** > 10 µM

**Q.** And the IC50 (second compound 0.1 µM)?
**A.** > 10 µM

**Q.** What about the IC50 (second compound 0.316 µM) of the same compound?
**A.** > 10 µM

**Q.** And the IC50 (second compound 1 µM)?
**A.** > 10 µM

**Q.** And the IC50 (second compound 3.16 µM)?
**A.** > 10 µM

**Q.** What about the IC50 (second compound 10 µM) of the same compound?
**A.** > 10 µM

**Q.** And the viability, T/C [1]?
**A.** 99.1%

**Q.** And the viability, T/C [2]?
**A.** 111%

**Q.** And the viability, T/C [3]?
**A.** 87.1%

**Q.** And the viability, T/C [4]?
**A.** 128%

**Q.** And the viability, T/C [5]?
**A.** 125%

**Q.** What about the viability, T/C [6] of the same compound?
**A.** 112%

**Q.** And the viability, T/C [7]?
**A.** 90.7%

**Q.** And the viability, T/C [8]?
**A.** 99.5%

**Q.** What about the viability, T/C [9] of the same compound?
**A.** 91.2%

**Q.** And the viability, T/C [10]?
**A.** 138%

**Q.** What about the viability, T/C [11] of the same compound?
**A.** 122%

**Q.** What about the viability, T/C [12] of the same compound?
**A.** 107%

**Q.** What about the viability, T/C [13] of the same compound?
**A.** 106%

**Q.** And the viability, T/C [14]?
**A.** 106%

**Q.** What about the viability, T/C [15] of the same compound?
**A.** 87.3%

**Q.** And the viability, T/C [16]?
**A.** 94.8%

**Q.** And the viability, T/C [17]?
**A.** 128%

**Q.** What about the viability, T/C [18] of the same compound?
**A.** 87.4%

**Q.** And the viability, T/C [19]?
**A.** 91.4%

**Q.** What about the viability, T/C [20] of the same compound?
**A.** 96.9%

**Q.** What about the viability, T/C [21] of the same compound?
**A.** 98.4%

**Q.** And the viability, T/C [22]?
**A.** 134%

**Q.** What about the viability, T/C [23] of the same compound?
**A.** 115%

**Q.** And the viability, T/C [24]?
**A.** 138%

**Q.** What about the viability, T/C [25] of the same compound?
**A.** 85.1%

**Q.** What about the viability, T/C [26] of the same compound?
**A.** 89.9%

**Q.** What about the viability, T/C [27] of the same compound?
**A.** 114%

**Q.** What about the viability, T/C [28] of the same compound?
**A.** 95.9%

**Q.** What about the viability, T/C [29] of the same compound?
**A.** 183%

**Q.** And the viability, T/C [30]?
**A.** 113%

**Q.** What about the viability, T/C [31] of the same compound?
**A.** 88.2%

**Q.** And the viability, T/C [32]?
**A.** 95.8%

**Q.** And the viability, T/C [33]?
**A.** 116%

**Q.** And the viability, T/C [34]?
**A.** 89.3%

**Q.** And the viability, T/C [35]?
**A.** 119%

**Q.** What about the viability, T/C [36] of the same compound?
**A.** 138%

**Q.** Which IC50 (second compound 0.0316 µM) does the source give for `COc1cc(C2c3cc4c(cc3C(OC3OC5COC(C)OC5C(O)C3O)C3COC(=O)C23)OCO4)cc(OC)c1O` (stereo unspecified) + COC1C(OC(N)=O)C(O)C(Oc2ccc3c(O)c(NC(=O)c4ccc(O)c(CC=C(C)C)c4)c(=O)oc3c2C)OC1(C)C here?
**A.** 1.04 µM

**Q.** And the IC50 (second compound 0.1 µM)?
**A.** 0.683 µM

**Q.** What about the IC50 (second compound 0.316 µM) of the same compound?
**A.** 0.691 µM

**Q.** And the IC50 (second compound 1 µM)?
**A.** 0.569 µM

**Q.** What about the IC50 (second compound 3.16 µM) of the same compound?
**A.** 0.887 µM

**Q.** What about the IC50 (second compound 10 µM) of the same compound?
**A.** 0.706 µM

**Q.** And the viability, T/C [1]?
**A.** 97.7%

**Q.** And the viability, T/C [2]?
**A.** 81.4%

**Q.** And the viability, T/C [3]?
**A.** 70.2%

**Q.** What about the viability, T/C [4] of the same compound?
**A.** 47.3%

**Q.** And the viability, T/C [5]?
**A.** 39.5%

**Q.** What about the viability, T/C [6] of the same compound?
**A.** 29.4%

**Q.** What about the viability, T/C [7] of the same compound?
**A.** 105%

**Q.** What about the viability, T/C [8] of the same compound?
**A.** 94%

**Q.** And the viability, T/C [9]?
**A.** 67.3%

**Q.** What about the viability, T/C [10] of the same compound?
**A.** 41.8%

**Q.** And the viability, T/C [11]?
**A.** 30.8%

**Q.** And the viability, T/C [12]?
**A.** 30.7%

**Q.** And the viability, T/C [13]?
**A.** 134%

**Q.** And the viability, T/C [14]?
**A.** 85.2%

**Q.** What about the viability, T/C [15] of the same compound?
**A.** 80.4%

**Q.** What about the viability, T/C [16] of the same compound?
**A.** 32.8%

**Q.** What about the viability, T/C [17] of the same compound?
**A.** 27.5%

**Q.** And the viability, T/C [18]?
**A.** 26%

**Q.** And the viability, T/C [19]?
**A.** 105%

**Q.** And the viability, T/C [20]?
**A.** 126%

**Q.** What about the viability, T/C [21] of the same compound?
**A.** 62.2%

**Q.** And the viability, T/C [22]?
**A.** 57.6%

**Q.** What about the viability, T/C [23] of the same compound?
**A.** 26.7%

**Q.** And the viability, T/C [24]?
**A.** 30.6%

**Q.** And the viability, T/C [25]?
**A.** 78%

**Q.** And the viability, T/C [26]?
**A.** 108%

**Q.** And the viability, T/C [27]?
**A.** 83.3%

**Q.** And the viability, T/C [28]?
**A.** 46.7%

**Q.** What about the viability, T/C [29] of the same compound?
**A.** 28.9%

**Q.** What about the viability, T/C [30] of the same compound?
**A.** 32.6%

**Q.** And the viability, T/C [31]?
**A.** 96.9%

**Q.** And the viability, T/C [32]?
**A.** 75.9%

**Q.** What about the viability, T/C [33] of the same compound?
**A.** 68.7%

**Q.** And the viability, T/C [34]?
**A.** 43.9%

**Q.** What about the viability, T/C [35] of the same compound?
**A.** 27.4%

**Q.** And the viability, T/C [36]?
**A.** 35.5%

Reference: PubChem BioAssay AID1963829 (Molecular Pharmacology Branch, DTP, NCI, 2024)
